Laboratory results taken from ChEMBL document CHEMBL1141280, “Hirtusneanoside, an unsymmetrical dimeric tetrahydroxanthone from the lichen Usnea hirta” (2007).

Columns and labels:
Staphylococcus aureus = experiment: Antibacterial activity against Staphylococcus aureus; assay type: functional; conditions: read-out: LD50 (the source's name)
Bacillus subtilis = experiment: Antibacterial activity against Bacillus subtilis; assay type: functional; conditions: read-out: LD50 (the source's name)

## COC(=O)[C@@]12Oc3cc(C)c(-c4c(C)cc5c(c4O)C(=O)C4=C(O)C[C@@H](C)[C@@H](O)[C@@]4(CO[C@@H]4O[C@@H](C)[C@H](O)[C@@H](O)[C@H]4O)O5)c(O)c3C(=O)C1=C(O)[C@H](C)[C@@H](C)[C@@H]2O [HIRTUSNEANOSIDE]
Staphylococcus aureus
  LC50: 3.4 nM
Bacillus subtilis
  LC50: 14 nM
